Measured values taken from patent US20100041089A1, “IMPROVED METHOD FOR DETECTING CHEMICAL […]” (priority 2006, published 2010).

System: yeast genes (expressed mRNA)
Assay: DNA chip measurement of expressed mRNA of yeast genes after culture with a toxic chemical substance
Assay type: cell-based, Saccharomyces cerevisiae S288C
Summary of the method: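 Fluorescence ratio, treated over untreated, read by chip scanner; ratio of two or more counted significant. Cells: S288C yeast, YPD, 25° C, chemical added at log phase for 2 h at growth-inhibiting, sublethal level. Cy3/Cy5-labeled cDNA from oligo-dT-purified mRNA.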

## CCCCCCCCCCCCOS(=O)(=O)[O-].[Na+] [(18), Sodium lauryl sulfate]
Yeast gene YAL053W, cultured two hours with substance
  The level of expressed mRNA in the presence of chemical substance/The level of expressed mRNA in the absence of chemical substance: 1.6
Yeast gene YAR028W, cultured two hours with substance
  The level of expressed mRNA in the presence of chemical substance/The level of expressed mRNA in the absence of chemical substance: 2.1
Yeast gene YAR031W, cultured two hours with substance
  The level of expressed mRNA in the presence of chemical substance/The level of expressed mRNA in the absence of chemical substance: 2.5
Yeast gene YBL048W, cultured two hours with substance
  The level of expressed mRNA in the presence of chemical substance/The level of expressed mRNA in the absence of chemical substance: 1.0
Yeast gene YBL057C, cultured two hours with substance
  The level of expressed mRNA in the presence of chemical substance/The level of expressed mRNA in the absence of chemical substance: 1.2
Yeast gene YBL107C, cultured two hours with substance
  The level of expressed mRNA in the presence of chemical substance/The level of expressed mRNA in the absence of chemical substance: 1.4
Yeast gene YBR005W, cultured two hours with the substance
  The level of expressed mRNA in the presence of chemical substance/The level of expressed mRNA in the absence of chemical substance: 4.6
Yeast gene YCL035C (detoxification protein gene)
  The level of expressed mRNA in the presence of chemical substance/The level of expressed mRNA in the absence of chemical substance: 4.2
Yeast gene YCL035C (stress protein genes)
  The level of expressed mRNA in the presence of chemical substance/The level of expressed mRNA in the absence of chemical substance: 4.2
Yeast gene YCR015C, cultured two hours with the chemical substance
  The level of expressed mRNA in the presence of chemical substance/The level of expressed mRNA in the absence of chemical substance: 1.2
Yeast gene YDL072C, cultured two hours with substance
  The level of expressed mRNA in the presence of chemical substance/The level of expressed mRNA in the absence of chemical substance: 2.8
Yeast gene YDL110C, cultured two hours with substance
  The level of expressed mRNA in the presence of chemical substance/The level of expressed mRNA in the absence of chemical substance: 4.4
Yeast gene YDL204W, cultured two hours with substance
  The level of expressed mRNA in the presence of chemical substance/The level of expressed mRNA in the absence of chemical substance: 2.7
Yeast gene YDL222C, cultured two hours with substance
  The level of expressed mRNA in the presence of chemical substance/The level of expressed mRNA in the absence of chemical substance: 1.3
Yeast gene YDR018C, cultured two hours with substance
  The level of expressed mRNA in the presence of chemical substance/The level of expressed mRNA in the absence of chemical substance: 1.2
Yeast gene YDR031W, cultured two hours with substance
  The level of expressed mRNA in the presence of chemical substance/The level of expressed mRNA in the absence of chemical substance: 2.5
Yeast gene YDR070C, cultured two hours with substance
  The level of expressed mRNA in the presence of chemical substance/The level of expressed mRNA in the absence of chemical substance: 3.1
Yeast gene YDR330W, cultured two hours with substance
  The level of expressed mRNA in the presence of chemical substance/The level of expressed mRNA in the absence of chemical substance: 1.3
Yeast gene YDR350C, cultured two hours with substance
  The level of expressed mRNA in the presence of chemical substance/The level of expressed mRNA in the absence of chemical substance: 1.2
Yeast gene YDR391C, cultured two hours with substance
  The level of expressed mRNA in the presence of chemical substance/The level of expressed mRNA in the absence of chemical substance: 2.4
Yeast gene YDR411C, cultured two hours with substance
  The level of expressed mRNA in the presence of chemical substance/The level of expressed mRNA in the absence of chemical substance: 1.3
Yeast gene YDR482C, cultured two hours with substance
  The level of expressed mRNA in the presence of chemical substance/The level of expressed mRNA in the absence of chemical substance: 1.2
Yeast gene YDR486C, cultured two hours with substance
  The level of expressed mRNA in the presence of chemical substance/The level of expressed mRNA in the absence of chemical substance: 1.7
Yeast gene YDR511W, cultured two hours with substance
  The level of expressed mRNA in the presence of chemical substance/The level of expressed mRNA in the absence of chemical substance: 1.5
Yeast gene YDR531W, cultured two hours with substance
  The level of expressed mRNA in the presence of chemical substance/The level of expressed mRNA in the absence of chemical substance: 1.2
Yeast gene YDR545W, cultured two hours with substance
  The level of expressed mRNA in the presence of chemical substance/The level of expressed mRNA in the absence of chemical substance: 0.9
Yeast gene YEL001C, cultured two hours with substance
  The level of expressed mRNA in the presence of chemical substance/The level of expressed mRNA in the absence of chemical substance: 1.3
Yeast gene YER004W, cultured two hours with substance
  The level of expressed mRNA in the presence of chemical substance/The level of expressed mRNA in the absence of chemical substance: 1.2
Yeast gene YER035W, cultured two hours with substance
  The level of expressed mRNA in the presence of chemical substance/The level of expressed mRNA in the absence of chemical substance: 2.1
Yeast gene YER038C, cultured two hours with substance
  The level of expressed mRNA in the presence of chemical substance/The level of expressed mRNA in the absence of chemical substance: 1.4
Yeast gene YER079W, cultured two hours with substance
  The level of expressed mRNA in the presence of chemical substance/The level of expressed mRNA in the absence of chemical substance: 1.6
Yeast gene YER106W, cultured two hours with substance
  The level of expressed mRNA in the presence of chemical substance/The level of expressed mRNA in the absence of chemical substance: 0.8
Yeast gene YER158C, cultured two hours with substance
  The level of expressed mRNA in the presence of chemical substance/The level of expressed mRNA in the absence of chemical substance: 1.2
Yeast gene YER163C, cultured two hours with substance
  The level of expressed mRNA in the presence of chemical substance/The level of expressed mRNA in the absence of chemical substance: 1.2
Yeast gene YER175C, cultured two hours with substance
  The level of expressed mRNA in the presence of chemical substance/The level of expressed mRNA in the absence of chemical substance: 1.2
Yeast gene YFL006W, cultured two hours with substance
  The level of expressed mRNA in the presence of chemical substance/The level of expressed mRNA in the absence of chemical substance: 0.8
Yeast gene YFL010C, cultured two hours with substance
  The level of expressed mRNA in the presence of chemical substance/The level of expressed mRNA in the absence of chemical substance: 1.6
Yeast gene YFL014W, DNA repair protein genes, cultured two hours with substance
  The level of expressed mRNA in the presence of chemical substance/The level of expressed mRNA in the absence of chemical substance: 8.8
Yeast gene YFL024C, cultured two hours with substance
  The level of expressed mRNA in the presence of chemical substance/The level of expressed mRNA in the absence of chemical substance: 0.8
Yeast gene YFL032W, cultured two hours with substance
  The level of expressed mRNA in the presence of chemical substance/The level of expressed mRNA in the absence of chemical substance: 0.8
Yeast gene YFR046C, cultured two hours with substance
  The level of expressed mRNA in the presence of chemical substance/The level of expressed mRNA in the absence of chemical substance: 1.2
Yeast gene YGL006W (transport facilitation protein gene)
  The level of expressed mRNA in the presence of chemical substance/The level of expressed mRNA in the absence of chemical substance: 4.1
Yeast gene YGL037C, cultured two hours with substance
  The level of expressed mRNA in the presence of chemical substance/The level of expressed mRNA in the absence of chemical substance: 2.6
Yeast gene YGL047W, cultured two hours with substance
  The level of expressed mRNA in the presence of chemical substance/The level of expressed mRNA in the absence of chemical substance: 1.2
Yeast gene YGL053W, cultured two hours with substance
  The level of expressed mRNA in the presence of chemical substance/The level of expressed mRNA in the absence of chemical substance: 3.7
Yeast gene YGL121C, cultured two hours with substance
  The level of expressed mRNA in the presence of chemical substance/The level of expressed mRNA in the absence of chemical substance: 3.5
Yeast gene YGL136C, cultured two hours with substance
  The level of expressed mRNA in the presence of chemical substance/The level of expressed mRNA in the absence of chemical substance: 1.1
Yeast gene YGL199C, cultured two hours with substance
  The level of expressed mRNA in the presence of chemical substance/The level of expressed mRNA in the absence of chemical substance: 1.0
Yeast gene YGR008C, cultured for two hours with substance
  The level of expressed mRNA in the presence of chemical substance/The level of expressed mRNA in the absence of chemical substance: 4.2
Yeast gene YGR026W, cultured two hours with the chemical substance
  The level of expressed mRNA in the presence of chemical substance/The level of expressed mRNA in the absence of chemical substance: 1.2
Yeast gene YGR035C, cultured two hours with substance
  The level of expressed mRNA in the presence of chemical substance/The level of expressed mRNA in the absence of chemical substance: 4.3
Yeast gene YGR101W, cultured two hours with substance
  The level of expressed mRNA in the presence of chemical substance/The level of expressed mRNA in the absence of chemical substance: 1.1
Yeast gene YGR110W, cultured two hours with substance
  The level of expressed mRNA in the presence of chemical substance/The level of expressed mRNA in the absence of chemical substance: 2.1
Yeast gene YGR130C, cultured two hours with substance
  The level of expressed mRNA in the presence of chemical substance/The level of expressed mRNA in the absence of chemical substance: 1.6
Yeast gene YGR154C, cultured two hours with substance
  The level of expressed mRNA in the presence of chemical substance/The level of expressed mRNA in the absence of chemical substance: 1.2
Yeast gene YGR213C
  The level of expressed mRNA in the presence of chemical substance/The level of expressed mRNA in the absence of chemical substance: 8.5
Yeast gene YGR221C, cultured two hours with substance
  The level of expressed mRNA in the presence of chemical substance/The level of expressed mRNA in the absence of chemical substance: 1.3
Yeast gene YGR244C, cultured for two hours with substance
  The level of expressed mRNA in the presence of chemical substance/The level of expressed mRNA in the absence of chemical substance: 3.1
Yeast gene YHR029C, cultured two hours with substance
  The level of expressed mRNA in the presence of chemical substance/The level of expressed mRNA in the absence of chemical substance: 2.1
Yeast gene YHR138C, cultured two hours with substance
  The level of expressed mRNA in the presence of chemical substance/The level of expressed mRNA in the absence of chemical substance: 7.1
Yeast gene YHR199C, cultured two hours with substance
  The level of expressed mRNA in the presence of chemical substance/The level of expressed mRNA in the absence of chemical substance: 0.9
Yeast gene YIL023C, cultured two hours with substance
  The level of expressed mRNA in the presence of chemical substance/The level of expressed mRNA in the absence of chemical substance: 1.0
Yeast gene YIL024C, cultured two hours with substance
  The level of expressed mRNA in the presence of chemical substance/The level of expressed mRNA in the absence of chemical substance: 1.0
Yeast gene YIL041W, cultured two hours with substance
  The level of expressed mRNA in the presence of chemical substance/The level of expressed mRNA in the absence of chemical substance: 1.1
Yeast gene YIL087C, cultured two hours with substance
  The level of expressed mRNA in the presence of chemical substance/The level of expressed mRNA in the absence of chemical substance: 1.6
Yeast gene YIL117C, cultured two hours with substance
  The level of expressed mRNA in the presence of chemical substance/The level of expressed mRNA in the absence of chemical substance: 2.6
Yeast gene YJL057C, cultured two hours with substance
  The level of expressed mRNA in the presence of chemical substance/The level of expressed mRNA in the absence of chemical substance: 1.5
Yeast gene YJL066C, cultured two hours with substance
  The level of expressed mRNA in the presence of chemical substance/The level of expressed mRNA in the absence of chemical substance: 1.5
Yeast gene YJL082W, cultured two hours with substance
  The level of expressed mRNA in the presence of chemical substance/The level of expressed mRNA in the absence of chemical substance: 0.3
Yeast gene YJL108C, cultured two hours with substance
  The level of expressed mRNA in the presence of chemical substance/The level of expressed mRNA in the absence of chemical substance: 0.9
Yeast gene YJL149W, cultured two hours with substance
  The level of expressed mRNA in the presence of chemical substance/The level of expressed mRNA in the absence of chemical substance: 1.2
Yeast gene YJL151C, cultured two hours with substance
  The level of expressed mRNA in the presence of chemical substance/The level of expressed mRNA in the absence of chemical substance: 2.4
Yeast gene YJL152W, cultured two hours with substance
  The level of expressed mRNA in the presence of chemical substance/The level of expressed mRNA in the absence of chemical substance: 1.7
Yeast gene YJL161W, cultured two hours with substance
  The level of expressed mRNA in the presence of chemical substance/The level of expressed mRNA in the absence of chemical substance: 2.1
Yeast gene YJL166W, mitochondria-located protein gene, cultured two hours with substance
  The level of expressed mRNA in the presence of chemical substance/The level of expressed mRNA in the absence of chemical substance: 4.0
Yeast gene YJL171C, cultured two hours with substance
  The level of expressed mRNA in the presence of chemical substance/The level of expressed mRNA in the absence of chemical substance: 2.9
Yeast gene YJL186W, cultured two hours with substance
  The level of expressed mRNA in the presence of chemical substance/The level of expressed mRNA in the absence of chemical substance: 0.8
Yeast gene YJR008W, cultured two hours with substance
  The level of expressed mRNA in the presence of chemical substance/The level of expressed mRNA in the absence of chemical substance: 2.7
